Test results from PubChem BioAssay (NCI).
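Growth conditions: 96-well plates. Treatment: test compound, 48 hours, 5 concentrations. Analysis: linear interpolation between bracketing concentrations; unreached endpoints set to highest concentration. TGI denotes the concentration required for complete inhibition of growth.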

Tests used:
Experiment in all cases: NCI-60 cell line screen, 48 h
EKVX NSCLC = system: EKVX NSCLC
SK-MEL-5 melanoma = system: SK-MEL-5 melanoma
786-0 renal = system: 786-0 renal
T-47D breast = system: T-47D breast
SF-539 CNS = system: SF-539 CNS
MCF7 breast = system: MCF7 breast
KM12 colon = system: KM12 colon
NCI-H460 lung = system: NCI-H460 lung
HCT-116 colon = system: HCT-116 colon
SNB-75 CNS = system: SNB-75 CNS
OVCAR-4 ovarian = system: OVCAR-4 ovarian
HT29 colon = system: HT29 colon
OVCAR-8 ovarian = system: OVCAR-8 ovarian
NCI-H23 lung = system: NCI-H23 lung
SR leukemia = system: SR leukemia
K-562 leukemia = system: K-562 leukemia
DU-145 prostate = system: DU-145 prostate
IGROV1 ovarian = system: IGROV1 ovarian
NCI/ADR-RES ovarian = system: NCI/ADR-RES ovarian
U251 CNS = system: U251 CNS
HL-60(TB) leukemia = system: HL-60(TB) leukemia
BT-549 breast = system: BT-549 breast
OVCAR-3 ovarian = system: OVCAR-3 ovarian
HOP-92 NSCLC = system: HOP-92 NSCLC
SK-MEL-2 melanoma = system: SK-MEL-2 melanoma
HCC-2998 colon = system: HCC-2998 colon
UO-31 renal = system: UO-31 renal
HCT-15 colon = system: HCT-15 colon
CCRF-CEM leukemia = system: CCRF-CEM leukemia
OVCAR-5 ovarian = system: OVCAR-5 ovarian
RXF 393 renal = system: RXF 393 renal
TK-10 renal = system: TK-10 renal
ACHN renal = system: ACHN renal
MOLT-4 leukemia = system: MOLT-4 leukemia
PC-3 prostate = system: PC-3 prostate
A549 NSCLC = system: A549 NSCLC
SK-MEL-28 melanoma = system: SK-MEL-28 melanoma
COLO 205 colon = system: COLO 205 colon
HS 578T breast = system: HS 578T breast
SNB-19 CNS = system: SNB-19 CNS
MDA-MB-435 = system: MDA-MB-435
HOP-62 NSCLC = system: HOP-62 NSCLC
SN12C renal = system: SN12C renal
UACC-257 melanoma = system: UACC-257 melanoma
UACC-62 melanoma = system: UACC-62 melanoma
MDA-MB-231 breast = system: MDA-MB-231 breast
SF-295 CNS = system: SF-295 CNS
A498 renal = system: A498 renal
RPMI-8226 leukemia = system: RPMI-8226 leukemia
SK-OV-3 ovarian = system: SK-OV-3 ovarian
NCI-H522 lung = system: NCI-H522 lung
SF-268 CNS = system: SF-268 CNS
MDA-N = system: MDA-N
CAKI-1 renal = system: CAKI-1 renal
LOX IMVI melanoma = system: LOX IMVI melanoma
SW-620 colon = system: SW-620 colon
M14 melanoma = system: M14 melanoma
MALME-3M melanoma = system: MALME-3M melanoma
NCI-H226 lung = system: NCI-H226 lung

For `CC[C@@H]1/C=C/C=C/C[C@H](C)[C@@H](O)[C@](C)(O)C(=O)[C@H](C)[C@@H](O)[C@H](C)C(=O)[C@H](C)[C@@H](O)[C@H](C)/C=C/C(=O)O[C@H]2[C@@H](C)[C@@H](CC1)O[C@]1(O[C@H](CC(C)O)[C@H](C)CC1=O)[C@@H]2C` (stereo partly specified), the TGI (EKVX NSCLC) was 5.9 µM, the TGI (SK-MEL-5 melanoma) was 3.53 µM and the TGI (786-0 renal) was 12.1 µM. The TGI (T-47D breast) was > 25 µM, the TGI (SF-539 CNS) was 8.75 µM and the TGI (MCF7 breast) was 4.7 µM. For the same compound, the TGI (KM12 colon) was 13 µM, the TGI (NCI-H460 lung) was 6.85 µM and the TGI (HCT-116 colon) was 6.26 µM. For the same compound, the TGI (SNB-75 CNS) was > 25 µM, the TGI (OVCAR-4 ovarian) was > 19.7 µM and the TGI (HT29 colon) was 8.78 µM. For the same compound, the TGI (OVCAR-8 ovarian) was > 25 µM, the TGI (NCI-H23 lung) was 12.4 µM and the TGI (SR leukemia) was 12.8 µM. For the same compound, the TGI (K-562 leukemia) was 14.5 µM, the TGI (DU-145 prostate) was 8.78 µM and the TGI (IGROV1 ovarian) was 16.4 µM. It also gave a TGI (NCI/ADR-RES ovarian) of 14.8 µM, a TGI (U251 CNS) of 11.9 µM and a TGI (HL-60(TB) leukemia) of 11.4 µM. The TGI (BT-549 breast) was 10.9 µM, the TGI (OVCAR-3 ovarian) was 13.1 µM and the TGI (HOP-92 NSCLC) was 9.98 µM. The TGI (SK-MEL-2 melanoma) was 9.61 µM, the TGI (HCC-2998 colon) was 8 µM and the TGI (UO-31 renal) was > 20.4 µM. For the same compound, the TGI (HCT-15 colon) was > 21.2 µM, the TGI (CCRF-CEM leukemia) was > 16 µM and the TGI (OVCAR-5 ovarian) was 8.25 µM. The TGI (RXF 393 renal) was 7.37 µM, the TGI (TK-10 renal) was 17.9 µM and the TGI (ACHN renal) was 9.19 µM. The TGI (MOLT-4 leukemia) was 11.3 µM, the TGI (PC-3 prostate) was 6.41 µM and the TGI (A549 NSCLC) was > 16.2 µM. For the same compound, the TGI (SK-MEL-28 melanoma) was > 19.6 µM, the TGI (COLO 205 colon) was 5.07 µM and the TGI (HS 578T breast) was > 18.5 µM. The TGI (SNB-19 CNS) was > 25 µM, the TGI (MDA-MB-435) was 10.6 µM and the TGI (HOP-62 NSCLC) was 8.41 µM. The TGI (SN12C renal) was 8.72 µM, the TGI (UACC-257 melanoma) was 3.54 µM and the TGI (UACC-62 melanoma) was 6.68 µM. For the same compound, the TGI (MDA-MB-231 breast) was 8.47 µM, the TGI (SF-295 CNS) was 0.114 µM and the TGI (A498 renal) was 7.93 µM. The TGI (RPMI-8226 leukemia) was > 13.9 µM, the TGI (SK-OV-3 ovarian) was > 19.2 µM and the TGI (NCI-H522 lung) was 6.59 µM. It also gave a TGI (SF-268 CNS) of 7.93 µM, a TGI (MDA-N) of 10.7 µM and a TGI (CAKI-1 renal) of 18 µM. For the same compound, the TGI (LOX IMVI melanoma) was 9.2 µM, the TGI (SW-620 colon) was > 25 µM and the TGI (M14 melanoma) was 9.41 µM. For the same compound, the TGI (MALME-3M melanoma) was 14.2 µM.

`CCOC(=O)C(=C(SC)SC)c1nn2c(=O)cc(C)nc2s1` gave a TGI (EKVX NSCLC) of 53.8 µM, a TGI (SK-MEL-5 melanoma) of 36.9 µM and a TGI (786-0 renal) of 36.2 µM. The TGI (T-47D breast) was 34.1 µM, the TGI (SF-539 CNS) was 32.7 µM and the TGI (MCF7 breast) was 35.5 µM. The TGI (KM12 colon) was 89.7 µM, the TGI (NCI-H460 lung) was 60.7 µM and the TGI (NCI-H226 lung) was 44.6 µM. The TGI (HCT-116 colon) was 30.5 µM, the TGI (SNB-75 CNS) was 89.6 µM and the TGI (OVCAR-4 ovarian) was > 100 µM. The TGI (HT29 colon) was 35.8 µM, the TGI (OVCAR-8 ovarian) was 43.9 µM and the TGI (NCI-H23 lung) was 65.9 µM. For the same compound, the TGI (SR leukemia) was 61.3 µM, the TGI (K-562 leukemia) was 44.1 µM and the TGI (DU-145 prostate) was 30.1 µM. For the same compound, the TGI (IGROV1 ovarian) was 47.5 µM, the TGI (NCI/ADR-RES ovarian) was 90.4 µM and the TGI (U251 CNS) was 58.1 µM. The TGI (HL-60(TB) leukemia) was 37.6 µM, the TGI (BT-549 breast) was 43.7 µM and the TGI (OVCAR-3 ovarian) was 35 µM. The TGI (HOP-92 NSCLC) was 34.4 µM, the TGI (SK-MEL-2 melanoma) was 37.5 µM and the TGI (HCC-2998 colon) was 34.9 µM. The TGI (UO-31 renal) was 34 µM, the TGI (HCT-15 colon) was 31.8 µM and the TGI (CCRF-CEM leukemia) was 68.6 µM. The TGI (OVCAR-5 ovarian) was 67.2 µM, the TGI (RXF 393 renal) was 47.5 µM and the TGI (TK-10 renal) was 44.9 µM. It also gave a TGI (ACHN renal) of 33.7 µM, a TGI (MOLT-4 leukemia) of 44.1 µM and a TGI (PC-3 prostate) of 56.6 µM. The TGI (A549 NSCLC) was > 100 µM, the TGI (SK-MEL-28 melanoma) was 31.3 µM and the TGI (COLO 205 colon) was 36.2 µM. The TGI (HS 578T breast) was > 100 µM, the TGI (SNB-19 CNS) was 86 µM and the TGI (MDA-MB-435) was 30.7 µM. For the same compound, the TGI (HOP-62 NSCLC) was > 100 µM, the TGI (SN12C renal) was > 100 µM and the TGI (UACC-257 melanoma) was 45.2 µM. For the same compound, the TGI (UACC-62 melanoma) was 57.3 µM, the TGI (MDA-MB-231 breast) was 47.8 µM and the TGI (SF-295 CNS) was > 100 µM. The TGI (RPMI-8226 leukemia) was 41.3 µM, the TGI (SK-OV-3 ovarian) was > 100 µM and the TGI (NCI-H522 lung) was 41.7 µM. The TGI (SF-268 CNS) was 54.5 µM, the TGI (MDA-N) was 30.6 µM and the TGI (CAKI-1 renal) was 60.1 µM. It also gave a TGI (LOX IMVI melanoma) of 29.5 µM, a TGI (SW-620 colon) of 41.3 µM and a TGI (M14 melanoma) of 29.4 µM. It also gave a TGI (MALME-3M melanoma) of 32.3 µM.
